Test results as given in ChEMBL document CHEMBL3124779, “Discovery of ABT-267, a pan-genotypic inhibitor of HCV NS5A” (J Med Chem, 2014).
In brackets after ≈: the same amount, converted by molar mass.

How the values were obtained:
[1] = test system: Hepatitis C virus; experiment: Resistant ratio of EC50 for wild type HCV1a to EC50 for HCV1a harboring NS5A Y93N mutant infected in human HuH7 cells; type: functional, Hepacivirus hominis, subtype 1a, Huh-7
[2] = test system: Hepatitis C virus; experiment: Resistant ratio of EC50 for wild type HCV1b to EC50 for HCV1b harboring NS5A L28T mutant infected in human HuH7 cells; type: functional, Hepacivirus hominis, genotype 1b, Huh-7
[3] = test system: Hepatitis C virus; experiment: Antiviral activity against HCV1b harboring NS5A L28M and Y93H mutant infected in human HuH7 cells assessed as inhibition of viral replication after 4 days by luciferase reporter gene assay; type: functional, Hepacivirus hominis, genotype 1b, Huh-7
[4] = Half life in monkey at 1 mg/kg, iv; type: ADME, organism-based, Macaca mulatta; parameters: dose 1 mg/kg, route intravenous; details: rhesus monkey, in vivo
[5] = test system: Hepatitis C virus; experiment: Resistant ratio of EC50 for wild type HCV1a to EC50 for HCV1a harboring NS5A H58D mutant infected in human HuH7 cells; type: functional, Hepacivirus hominis, subtype 1a, Huh-7
[6] = test system: Hepatitis C virus; experiment: Antiviral activity against HCV1b harboring NS5A L31F and Y93H mutant infected in human HuH7 cells assessed as inhibition of viral replication after 4 days by luciferase reporter gene assay; type: functional, Hepacivirus hominis, genotype 1b, Huh-7
[7] = test system: Hepatitis C virus; experiment: Resistant ratio of EC50 for wild type HCV1a to EC50 for HCV1a harboring NS5A M28T mutant infected in human HuH7 cells; type: functional, Hepacivirus hominis, subtype 1a, Huh-7
[8] = test system: Hepatitis C virus; experiment: Resistant ratio of EC50 for wild type HCV1b to EC50 for HCV1b harboring NS5A L31V and Y93H mutant infected in human HuH7 cells; type: functional, Hepacivirus hominis, genotype 1b, Huh-7
[9] = test system: Hepatitis C virus; experiment: Antiviral activity against HCV1a harboring NS5A M28V mutant infected in human HuH7 cells assessed as inhibition of viral replication after 4 days by luciferase reporter gene assay; type: functional, Hepacivirus hominis, subtype 1a, Huh-7
[10] = Kinetic solubility of the compound in 10 mM of phosphate buffer at pH 7.2 by CLND method; type: physicochemical; details: read-out: Kinetic_solubility
[11] = test system: Hepatitis C virus; experiment: Resistant ratio of EC50 for wild type HCV1a to EC50 for HCV1a harboring NS5A Q30R mutant infected in human HuH7 cells; type: functional, Hepacivirus hominis, subtype 1a, Huh-7
[12] = Metabolic stability in human liver microsomes assessed as compound remaining after 30 mins; type: ADME; details: read-out: Stability
[13] = test system: Hepatitis C virus; experiment: Antiviral activity against HCV4a infected in human HuH7 cells assessed as inhibition of viral replication after 4 days by luciferase reporter gene assay; type: functional, organism-based, Hepacivirus hominis; details: genotype 4a, Huh-7, 96 h
[14] = test system: Hepatitis C virus; experiment: Antiviral activity against HCV3a infected in human HuH7 cells assessed as inhibition of viral replication after 4 days by luciferase reporter gene assay; type: functional, organism-based, Hepacivirus hominis; details: genotype 3a, Huh-7, 96 h
[15] = Volume of distribution at steady state in monkey at 1 mg/kg, iv; type: ADME, organism-based, Macaca mulatta; parameters: dose 1 mg/kg, route intravenous; details: rhesus monkey, in vivo, read-out: Vdss
[16] = test system: Hepatitis C virus; experiment: Ratio of EC50 for HCV1a H77 infected in human HuH7 cells in presence of 40% human plasma to EC50 for HCV1a H77 infected in human HuH7 cells in absence of 40% human plasma; type: functional, Hepacivirus hominis, genotype 1a H77, Huh-7
[17] = test system: Hepatitis C virus; experiment: Resistant ratio of EC50 for wild type HCV1b to EC50 for HCV1b harboring NS5A L28M and Y93H mutant infected in human HuH7 cells; type: functional, Hepacivirus hominis, genotype 1b, Huh-7
[18] = test system: Hepatitis C virus; experiment: Antiviral activity against HCV1a H77 infected in human HuH7 cells assessed as inhibition of viral replication after 4 days by luciferase reporter gene assay; type: functional, organism-based, Hepacivirus hominis; details: genotype 1a H77, Huh-7, 96 h
[19] = organism: Homo sapiens; experiment: Toxicity in HCV1 infected patient assessed as adverse event at 5 to 200 mg qd for 3 days; type: organism-based; details: in vivo, 72 h
[20] = test system: Hepatitis C virus; experiment: Antiviral activity against HCV1a harboring NS5A M28T mutant infected in human HuH7 cells assessed as inhibition of viral replication after 4 days by luciferase reporter gene assay; type: functional, Hepacivirus hominis, subtype 1a, Huh-7
[21] = Lipophilicity, log D of the compound at pH 7.4 by HPLC analysis; type: physicochemical; details: buffer
[22] = test system: Hepatitis C virus; experiment: Antiviral activity in HCV1 infected in human assessed as log reduction of viral RNA at 5 to 200 mg qd for 3 days relative to control; type: functional, Hepacivirus hominis, genotype 1
[23] = test system: Hepatitis C virus; experiment: Resistant ratio of EC50 for wild type HCV1b to EC50 for HCV1b harboring NS5A L31M and Y93H mutant infected in human HuH7 cells; type: functional, Hepacivirus hominis, genotype 1b, Huh-7
[24] = Clearance in monkey at 1 mg/kg, iv; type: ADME, organism-based, Macaca mulatta; parameters: dose 1 mg/kg, route intravenous; details: rhesus monkey, in vivo
[25] = Oral bioavailability in dog at 2.5 mg/kg; type: ADME, organism-based, Canis lupus familiaris; details: in vivo
[26] = Tmax in dog at 2.5 mg/kg, po; type: ADME, organism-based, Canis lupus familiaris; parameters: dose 2.5 mg/kg, route oral; details: in vivo
[27] = test system: Hepatitis C virus; experiment: Resistant ratio of EC50 for wild type HCV1b to EC50 for HCV1b harboring NS5A L31F mutant infected in human HuH7 cells; type: functional, Hepacivirus hominis, genotype 1b, Huh-7
[28] = test system: Hepatitis C virus; experiment: Ratio of EC50 for HCV1b Con1 infected in human HuH7 cells in presence of 40% human plasma to EC50 for HCV1b Con1 infected in human HuH7 cells in absence of 40% human plasma; type: functional, Hepacivirus hominis, isolate Con1, Huh-7
[29] = test system: Hepatitis C virus; experiment: Antiviral activity against HCV1b harboring NS5A L28T mutant infected in human HuH7 cells assessed as inhibition of viral replication after 4 days by luciferase reporter gene assay; type: functional, Hepacivirus hominis, genotype 1b, Huh-7
[30] = Half life in monkey at 2.5 mg/kg, po; type: ADME, organism-based, Macaca mulatta; parameters: dose 2.5 mg/kg, route oral; details: rhesus monkey, in vivo

## COC(=O)N[C@H](C(=O)N1CCC[C@H]1C(=O)Nc1ccc([C@@H]2CC[C@@H](c3ccc(NC(=O)[C@@H]4CCCN4C(=O)[C@@H](NC(=O)OC)C(C)C)cc3)N2c2ccc(C(C)(C)C)cc2)cc1)C(C)C [OMBITASVIR]
[1]
  Ratio EC50: 66739
[2]
  Ratio EC50: 661
[3]
  Efficacy: 104%
[4]
  half-life: 4.4 h
[5]
  Ratio EC50: 243
[6]
  Efficacy: 35%
[7]
  Ratio EC50: 8965
[8]
  Ratio EC50: 12323
[9]
  Efficacy: 87%
[10]
  solubility kinetic: 2.7 µM (≈ 2.41 µg/mL)
[11]
  Ratio EC50: 800
[12]
  remaining at 0.5 h: 60%
[13]
  EC50: 0.00171 nM
[14]
  EC50: 0.0193 nM
[15]
  Vd: 1.5 L/kg
[16]
  Ratio EC50: 13
[17]
  Ratio EC50: 415
[18]
  EC50: 0.014 nM
[19]
  Activity: Non-toxic
[20]
  Efficacy: 100%
[21]
  logD: 5.4
[22]
  Activity: <=3.1 log10IU/ml
[23]
  Ratio EC50: 142
[24]
  clearance: 6.33 mL/min/kg
[25]
  bioavailability: 57%
[26]
  Tmax: 3.3 h
[27]
  Ratio EC50: 10
[28]
  Ratio EC50: 11
[29]
  Efficacy: 17%
[30]
  half-life: 5 h
